Columns and labels:
ERK signaling pathway = experiment: Western blotting of ERK phosphorylation in hDPCs; assay type: cell-based, human; conditions: 1 μM, within 15 minutes, FIG. 2
Description: To identify the effects of PDE 3 inhibitors on an ERK signaling pathway, which is a key cell proliferation-associated signaling pathway, human hDPCs were treated with cilostazol, cilostamide, trequinsin, or milrinone at a concentration of 1 μM for 0 minute, 5 minutes, 15 minutes, and 60 minutes, and western blotting was performed thereon.

[1] = tested on: human hair follicle-derived hair dermal papilla cells (hDPCs); experiment: BrdU assay of cell division of hDPCs; assay type: cell-based; conditions: 0 μM to 10 μM, 48 hours, versus negative control, FIG. 1
Description: To evaluate the effect of PDE on the proliferation of hair follicle cells, human hair follicle-derived hDPCs were treated with cilostazol, cilostamide, trequinsin, or milrinone, which are well-known PDE 3 inhibitors, and then subjected to a BrdU assay.
First, primarily cultured hDPCs were treated with cilostazol, cilostamide, trequinsin, or milrinone at a concentration of 0 μM to 10 μM, cultured for 44 hours, treated with a BrdU reagent, and then allowed to react for 4 hours. After culturing for a total of 48 hours, the presence or absence of luminescence was measured using a luminometer for detecting BrdU, and cell division and activation degrees of the hDPCs were identified by comparison with a negative control.

[2] = tested on: angiogenesis around hair follicles; experiment: CD31 immunofluorescence staining for angiogenesis around hair follicles; assay type: in vivo; conditions: mouse skin tissue
Description: To verify the effect of a PDE 3 inhibitor on angiogenesis around hair follicles, immunofluorescence staining with CD31, which is a blood vessel marker protein, was performed. More particularly, mouse skin tissue of a negative control and mouse skin tissue on which cilostazol was applied were rapidly cryotreated and prepared into blocks, and then each block was cut into a tissue section having a thickness of 15 μm using a cryotome and immobilized on a slide. In addition, each tissue section was allowed to react with antibodies against CD31, which is a blood vessel marker protein, as primary antibodies, and then treated with secondary antibodies with green fluorescence capable of detecting CD31, and the resulting tissue sections were observed using a fluorescence microscope and photographed, and the area of blood vessels was measured using an image analysis program.

[3] = tested on: MAPK-associated proteins (ERK, JNK, P-38); experiment: Western blotting of MAPK-associated signaling proteins in mouse skin tissue; assay type: in vivo; conditions: mouse skin tissue after anagen induction experiment, FIG. 6
Description: To verify the effect of a PDE 3 inhibitor on a MAPK-associated signaling pathway, which is a cell proliferation-associated signaling pathway, western blotting was performed using mouse skin tissue.

human hair follicles [4] = experiment: Ki-67 immunofluorescence staining of cultured hair follicles; conditions: cultured for two days, FIG. 3B
Description: In addition, to identify cell proliferation of the cultured hair follicles through the test, immunofluorescence staining was performed using antibodies against Ki-67, which is a cell division marker. The hair follicles were treated with cilostazol, cultured for two days, and made into a tissue section, the tissue section was cut to a thickness of 4 μm and fixed on a slide, followed by reaction with Ki-67 treated with primary antibodies and treatment with secondary antibodies with green fluorescence capable of detecting Ki-67, and then the resulting section was observed using a fluorescence microscope and photographed, and the number of Ki-67 positive cells was identified. In addition, the nuclei of the hair follicles was stained using a DAPI reagent.

human hair follicles [5] = experiment: Ex vivo hair follicle organ culture test; conditions: 1 μM or 10 μM, day 2, 4 and 6, versus negative control, FIG. 3A
Description: To evaluate the effects of PDE 3 inhibitors on human hair follicle growth, an ex vivo hair follicle organic culture test was performed using cilostazol. More particularly, to conduct the ex vivo hair follicle organic culture test, scalp tissues obtained from volunteers were divided into follicular units, and parts below sebaceous glands of the divided hair follicles were cut off and the remaining parts of the hair follicles were used. The prepared hair follicles were cultured in a culture medium containing a negative control reagent or 1 μM or 10 μM cilostazol, the length of hair growing on day 2, day 4, and day 6 was measured, and then a hair growth promotion effect of the human hair follicles was identified by comparison with a negative control.

C57BL/6 mice = experiment: Anagen induction test in C57BL/6 mouse model; assay type: in vivo; conditions: 0.2 wt % or 1 wt % applied once a day for three weeks
Description: To identify hair growth effects by PDE 3 inhibitors, an anagen induction effect was examined using a C57BL/6 mouse model. Although the hair cycle of human hair varies depending on individuals, mice have the same hair cycle at an initial stage and all hairs enter into a telogen phase 7 weeks to 8 weeks after birth, which then turns into an anagen phase. To evaluate an anagen induction effect using these characteristics of mice, dorsal hairs of 8-week-old C57BL/6 mice in the telogen phase were removed, 0.2 wt % or 1 wt % of cilostazol was applied thereon once a day for three weeks, and then through comparison with a negative control and the case of 2 wt % of minoxidil as a positive control, the presence or absence of hair growth and an anagen induction degree were identified. In addition, skin tissue from which anagen hair grew was fixed with paraffin and stained with hematoxylin and eosin to conduct a histological examination, and the results thereof are shown in FIG. 5.

| SMILES | phosphorylation of intracellular ERK proteins (ERK signaling pathway) | cell division of the hDPCs (BrdU) [1] | angiogenesis (CD31 staining) ([2]; FIG. 7A) | area of blood vessels ([2]; image analysis, FIG. 7B) | phosphorylation of the MAPK-associated signaling proteins (ERK, JNK, P-38) [3] | cell division in the human hair follicles (Ki-67 positive cells) (human hair follicles [4]) | hair growth of the human hair follicles (length of hair) (human hair follicles [5]) | proportion of a site on which anagen hair grew (C57BL/6 mice; FIG. 4) | formation of hair follicles (hematoxylin and eosin histology) (C57BL/6 mice; FIG. 5A) | anagen induction score (C57BL/6 mice; FIG. 5B) | skin thickness (C57BL/6 mice; FIG. 5C) |
| --- | --- | --- | --- | --- | --- | --- | --- | --- | --- | --- | --- |
| COc1cc2c(cc1OC)-c1c/c(=N\c3c(C)cc(C)cc3C)n(C)c(=O)n1CC2 [trequinsin] | increased | significantly increased |  |  |  |  |  |  |  |  |  |
| Cc1[nH]c(=O)c(C#N)cc1-c1ccncc1 [milrinone] | increased | significantly increased |  |  |  |  |  |  |  |  |  |
| O=C1CCc2cc(OCCCCc3nnnn3C3CCCCC3)ccc2N1 [cilostazol] | increased | significantly increased | induced | increased | increased | increased | promoted hair growth | significantly increased | promoted | increases | increases |
| CN(C(=O)CCCOc1ccc2[nH]c(=O)ccc2c1)C1CCCCC1 [cilostamide] | increased | significantly increased |  |  |  |  |  |  |  |  |  |

Reference: US10588906B2, “Method of preventing hair loss or promoting hair growth by using phosphodiesterase 3 inhibitor” (SEOUL NATIONAL UNIVERSITY HOSPITAL, priority 2017, dated 2020)
